Bridge positions count the residues as written; N and C are the ends. Square brackets hold non-standard residues; d marks the D form. Peptide text beside a SMILES is read from it. * marks the point of attachment. Phe(4-COOH) = N[C@@H](Cc1ccc(C(=O)O)cc1)C(=O)O; Bip = N[C@@H](Cc1ccc(-c2ccccc2)cc1)C(=O)O; NH(CH2)14COOH = O=C(O)CCCCCCCCCCCCCCN*; Phe(3-Me) = Cc1cccc(C[C@H](N)C(=O)O)c1; NH(CH2)12COOH = O=C(O)CCCCCCCCCCCCN*; Val(3-OH) = CC(C)(O)[C@H](N)C(=O)O; 4Pal = N[C@@H](Cc1ccncc1)C(=O)O; Cha = N[C@@H](CC1CCCCC1)C(=O)O; Carboxymethyl = O=C(O)C*; Nle = CCCC[C@H](N)C(=O)O; Orn = NCCC[C@H](N)C(=O)O; Dab = NCC[C@H](N)C(=O)O; Nva = CCC[C@H](N)C(=O)O; AEEA = NCCOCCOCC(=O)O

The values below come from US20260022142A1, “MACROCYCLIC IMMUNOMODULATORS” (Bristol-Myers Squibb Company, priority 2022, published 2026).

T1 sequence (Q15116 25-288): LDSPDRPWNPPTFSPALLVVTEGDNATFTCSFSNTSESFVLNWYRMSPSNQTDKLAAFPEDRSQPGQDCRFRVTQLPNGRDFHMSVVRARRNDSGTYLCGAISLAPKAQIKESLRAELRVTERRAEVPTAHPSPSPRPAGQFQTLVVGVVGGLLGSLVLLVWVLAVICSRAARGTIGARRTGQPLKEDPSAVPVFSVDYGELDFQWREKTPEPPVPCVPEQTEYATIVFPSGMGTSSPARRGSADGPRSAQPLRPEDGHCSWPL

The assay has as its target T1, PD-1/PD-L1 interaction (PE-labeled human PD-L1-Ig binding to Jurkat cell line over-expressing human PD-1) (Homo sapiens, UniProt Q15116).
T1 construct: expressed in transfected cells; host or cells: Jurkat
The experiment in a line: Jurkat-PD-1 Cell Binding High-Content Screening Assay (CBA). In kind it is cell-based. The settings on record: Jurkat cell line over-expressing human PD-1; PE-labeled PD-L1-Ig 20 nM final; read-out: Jurkat hPD1-PDL1 IC50. Put shortly: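 Jurkat-hPD-1 cells, DMEM/10% FCS; cpd 2 h 37° C; PE-PD-L1-Ig 20 nM final, 1 h; 4% PFA fix + Hoechst 33342, 3× dPBS wash; high-content imaging read-out.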
In the case of `CCC[C@@H]1NC(=O)CSC[C@@H](C(=O)N[C@@H](CCN)C(=O)NCCOCCOCC(=O)NCCOCCOCC(=O)NCCCCCCCCCCCCC(=O)O)NC(=O)[C@H](CO)NC(=O)[C@H](C(C)(C)O)NC(=O)[C@H](CC2CCCCC2)NC(=O)[C@H](CCN)NC(=O)[C@@H](CC(C)C)NC(=O)[C@H](CCCN)NC(=O)[C@H](Cc2ccc(C(=O)O)cc2)NC(=O)[C@H](Cc2ccc(-c3ccccc3)cc2)NC(=O)[C@H](Cc2ccc(C(=O)O)cc2)NC(=O)[C@H](Cc2cccc(C)c2)NC(=O)[C@H](CC(=O)O)NC(=O)[C@H](Cc2ccc(OCC(=O)O)cc2)NC1=O` [Compound 2883] ({CH2CO}-[Nva]Y(Carboxymethyl)D[Phe(3-Me)][Phe(4-COOH)][Bip][Phe(4-COOH)][Orn][dL][Dab][Cha][Val(3-OH)]SC[Dab][AEEA][AEEA]-{NH(CH2)12COOH}; thioether N-14), the IC50 stood at 4.9 nM. On to `CCC[C@@H]1NC(=O)CSC[C@@H](C(=O)N[C@@H](CCN)C(=O)NCCOCCOCC(=O)NCCOCCOCC(=O)NCCCCCCCCCCCCCCC(=O)O)NC(=O)[C@H](CO)NC(=O)[C@H](C(C)(C)O)NC(=O)[C@H](CC2CCCCC2)NC(=O)[C@H](CCN)NC(=O)[C@@H](CC(C)C)NC(=O)[C@H](CCCN)NC(=O)[C@H](Cc2ccc(C(=O)O)cc2)NC(=O)[C@H](Cc2ccc(-c3ccccc3)cc2)NC(=O)[C@H](Cc2ccc(C(=O)O)cc2)NC(=O)[C@H](Cc2cccc(C)c2)NC(=O)[C@H](CC(=O)O)NC(=O)[C@H](Cc2ccc(OCC(=O)O)cc2)NC1=O` [Compound 2884] ({CH2CO}-[Nva]Y(Carboxymethyl)D[Phe(3-Me)][Phe(4-COOH)][Bip][Phe(4-COOH)][Orn][dL][Dab][Cha][Val(3-OH)]SC[Dab][AEEA][AEEA]-{NH(CH2)14COOH}; thioether N-14), for which the IC50 is 133 nM. Turning to `COc1ccc(C[C@@H]2NC(=O)[C@H](Cc3cccc(C)c3)NC(=O)[C@H](CC(=O)O)NC(=O)[C@H](Cc3ccc(C(=O)O)cc3)NC(=O)[C@H](Cc3ccncc3)NC(=O)CSC[C@@H](C(=O)N[C@@H](CCN)C(=O)NCCOCCOCC(=O)NCCOCCOCC(=O)NCCCCCCCCCCCCCCC(=O)O)NC(=O)[C@H](CO)NC(=O)[C@H](C(C)(C)O)NC(=O)[C@H](CC3CCCCC3)NC(=O)[C@H](CCN)NC(=O)[C@@H](CC(C)C)NC(=O)[C@H](CCCN)NC(=O)[C@H](Cc3ccc(C(=O)O)cc3)NC(=O)[C@H](Cc3ccc(-c4ccccc4)cc3)NC2=O)cc1` [Compound 2885] ({CH2CO}-[4Pal][Phe(4-COOH)]D[Phe(3-Me)]Y(Me)[Bip][Phe(4-COOH)][Orn][dL][Dab][Cha][Val(3-OH)]SC[Dab][AEEA][AEEA]-{NH(CH2)14COOH}; thioether N-14), the IC50 amounted to 2690 nM. The value for `Cc1cccc(C[C@@H]2NC(=O)[C@H](CC(=O)O)NC(=O)[C@H](Cc3ccc(C(=O)O)cc3)NC(=O)[C@H](CCN)NC(=O)CSC[C@@H](C(=O)N[C@@H](CCN)C(=O)NCCOCCOCC(=O)NCCOCCOCC(=O)NCCCCCCCCCCCCC(=O)O)NC(=O)[C@H](Cc3c[nH]cn3)NC(=O)[C@H](C(C)(C)O)NC(=O)[C@H](CC3CCCCC3)NC(=O)[C@H](CCN)NC(=O)[C@@H](CC(C)C)NC(=O)[C@H](CCCN)NC(=O)[C@H](Cc3ccc(C(=O)O)cc3)NC(=O)[C@H](Cc3ccc(-c4ccccc4)cc3)NC(=O)[C@H](Cc3ccc(C(=O)O)cc3)NC2=O)c1` [Compound 2886] ({CH2CO}-[Dab][Phe(4-COOH)]D[Phe(3-Me)][Phe(4-COOH)][Bip][Phe(4-COOH)][Orn][dL][Dab][Cha][Val(3-OH)]HC[Dab][AEEA][AEEA]-{NH(CH2)12COOH}; thioether N-14) was 10 nM. The value for `Cc1cccc(C[C@@H]2NC(=O)[C@H](CC(=O)O)NC(=O)[C@H](Cc3ccc(OCC(=O)O)cc3)NC(=O)[C@H](CCN)NC(=O)CSC[C@@H](C(=O)N[C@@H](CCN)C(=O)NCCOCCOCC(=O)NCCOCCOCC(=O)NCCCCCCCCCCCCC(=O)O)NC(=O)[C@H](CO)NC(=O)[C@H](C(C)(C)O)NC(=O)[C@H](CC3CCCCC3)NC(=O)[C@H](Cc3c[nH]cn3)NC(=O)[C@@H](CC(C)C)NC(=O)[C@H](CCCN)NC(=O)[C@H](Cc3ccc(C(=O)O)cc3)NC(=O)[C@H](Cc3ccc(-c4ccccc4)cc3)NC(=O)[C@H](Cc3ccc(C(=O)O)cc3)NC2=O)c1` [Compound 2887] ({CH2CO}-[Dab]Y(Carboxymethyl)D[Phe(3-Me)][Phe(4-COOH)][Bip][Phe(4-COOH)][Orn][dL]H[Cha][Val(3-OH)]SC[Dab][AEEA][AEEA]-{NH(CH2)12COOH}; thioether N-14) was 18.4 nM; that for `Cc1cccc(C[C@@H]2NC(=O)[C@H](CC(=O)O)NC(=O)[C@H](Cc3ccc(OCC(=O)O)cc3)NC(=O)[C@H](CCN)NC(=O)CSC[C@@H](C(=O)N[C@@H](CCN)C(=O)NCCOCCOCC(=O)NCCOCCOCC(=O)NCCCCCCCCCCCCC(=O)O)NC(=O)[C@H](CCC(=O)O)NC(=O)[C@H](C(C)(C)O)NC(=O)[C@H](CC3CCCCC3)NC(=O)[C@H](Cc3c[nH]cn3)NC(=O)[C@@H](CC(C)C)NC(=O)[C@H](CCCN)NC(=O)[C@H](Cc3ccc(C(=O)O)cc3)NC(=O)[C@H](Cc3ccc(-c4ccccc4)cc3)NC(=O)[C@H](Cc3ccc(C(=O)O)cc3)NC2=O)c1` [Compound 2888] ({CH2CO}-[Dab]Y(Carboxymethyl)D[Phe(3-Me)][Phe(4-COOH)][Bip][Phe(4-COOH)][Orn][dL]H[Cha][Val(3-OH)]EC[Dab][AEEA][AEEA]-{NH(CH2)12COOH}; thioether N-14) was 38.2 nM.

Consider `Cc1cccc(C[C@@H]2NC(=O)[C@H](CC(=O)O)NC(=O)[C@H](Cc3ccc(OCC(=O)O)cc3)NC(=O)[C@H](CCN)NC(=O)CSC[C@@H](C(=O)N[C@@H](CCN)C(=O)NCCOCCOCC(=O)NCCOCCOCC(=O)NCCCCCCCCCCCCC(=O)O)NC(=O)[C@H](CC(=O)O)NC(=O)[C@H](C(C)(C)O)NC(=O)[C@H](CC3CCCCC3)NC(=O)[C@H](Cc3c[nH]cn3)NC(=O)[C@@H](CC(C)C)NC(=O)[C@H](CCCN)NC(=O)[C@H](Cc3ccc(C(=O)O)cc3)NC(=O)[C@H](Cc3ccc(-c4ccccc4)cc3)NC(=O)[C@H](Cc3ccc(C(=O)O)cc3)NC2=O)c1` [Compound 2889] ({CH2CO}-[Dab]Y(Carboxymethyl)D[Phe(3-Me)][Phe(4-COOH)][Bip][Phe(4-COOH)][Orn][dL]H[Cha][Val(3-OH)]DC[Dab][AEEA][AEEA]-{NH(CH2)12COOH}; thioether N-14), for which the IC50 stood at 52.4 nM. In the case of `Cc1cccc(C[C@@H]2NC(=O)[C@H](CC(=O)O)NC(=O)[C@H](Cc3ccc(C(=O)O)cc3)NC(=O)[C@H](CCN)NC(=O)CSC[C@@H](C(=O)N[C@@H](CCN)C(=O)NCCOCCOCC(=O)NCCOCCOCC(=O)NCCCCCCCCCCCCC(=O)O)NC(=O)[C@H](CO)NC(=O)[C@H](C(C)(C)O)NC(=O)[C@H](CC3CCCCC3)NC(=O)[C@H](Cc3c[nH]cn3)NC(=O)[C@@H](CC(C)C)NC(=O)[C@H](CCCN)NC(=O)[C@H](Cc3ccc(C(=O)O)cc3)NC(=O)[C@H](Cc3ccc(-c4ccccc4)cc3)NC(=O)[C@H](Cc3ccc(C(=O)O)cc3)NC2=O)c1` [Compound 2890] ({CH2CO}-[Dab][Phe(4-COOH)]D[Phe(3-Me)][Phe(4-COOH)][Bip][Phe(4-COOH)][Orn][dL]H[Cha][Val(3-OH)]SC[Dab][AEEA][AEEA]-{NH(CH2)12COOH}; thioether N-14) it was 31.1 nM; in that of `CCCC[C@@H]1NC(=O)CSC[C@@H](C(=O)N[C@@H](CCN)C(=O)NCCOCCOCC(=O)NCCOCCOCC(=O)NCCCCCCCCCCCCC(=O)O)NC(=O)[C@H](CO)NC(=O)[C@H](C(C)(C)O)NC(=O)[C@H](CC2CCCCC2)NC(=O)[C@H](CCN)NC(=O)[C@@H](CC(C)C)NC(=O)[C@H](CCCN)NC(=O)[C@H](Cc2ccc(C(=O)O)cc2)NC(=O)[C@H](Cc2ccc(-c3ccccc3)cc2)NC(=O)[C@H](Cc2ccc(C(=O)O)cc2)NC(=O)[C@H](Cc2cccc(C)c2)NC(=O)[C@H](CC(=O)O)NC(=O)[C@H](Cc2ccc(OCC(=O)O)cc2)NC1=O` [Compound 2891] ({CH2CO}-[Nle]Y(Carboxymethyl)D[Phe(3-Me)][Phe(4-COOH)][Bip][Phe(4-COOH)][Orn][dL][Dab][Cha][Val(3-OH)]SC[Dab][AEEA][AEEA]-{NH(CH2)12COOH}; thioether N-14), 2.6 nM.

Consider `CCCC[C@@H]1NC(=O)CSC[C@@H](C(=O)N[C@@H](CCN)C(=O)NCCOCCOCC(=O)NCCOCCOCC(=O)NCCCCCCCCCCCCC(=O)O)NC(=O)[C@H](CCC(=O)O)NC(=O)[C@H](C(C)(C)O)NC(=O)[C@H](CC2CCCCC2)NC(=O)[C@H](CCN)NC(=O)[C@@H](CC(C)C)NC(=O)[C@H](CCCN)NC(=O)[C@H](Cc2ccc(C(=O)O)cc2)NC(=O)[C@H](Cc2ccc(-c3ccccc3)cc2)NC(=O)[C@H](Cc2ccc(C(=O)O)cc2)NC(=O)[C@H](Cc2cccc(C)c2)NC(=O)[C@H](CC(=O)O)NC(=O)[C@H](Cc2ccc(OCC(=O)O)cc2)NC1=O` [Compound 2892] ({CH2CO}-[Nle]Y(Carboxymethyl)D[Phe(3-Me)][Phe(4-COOH)][Bip][Phe(4-COOH)][Orn][dL][Dab][Cha][Val(3-OH)]EC[Dab][AEEA][AEEA]-{NH(CH2)12COOH}; thioether N-14), for which the IC50 amounted to 26.2 nM. As for `CCCC[C@@H]1NC(=O)CSC[C@@H](C(=O)N[C@@H](CCN)C(=O)NCCOCCOCC(=O)NCCOCCOCC(=O)NCCCCCCCCCCCCC(=O)O)NC(=O)[C@H](CC(=O)O)NC(=O)[C@H](C(C)(C)O)NC(=O)[C@H](CC2CCCCC2)NC(=O)[C@H](CCN)NC(=O)[C@@H](CC(C)C)NC(=O)[C@H](CCCN)NC(=O)[C@H](Cc2ccc(C(=O)O)cc2)NC(=O)[C@H](Cc2ccc(-c3ccccc3)cc2)NC(=O)[C@H](Cc2ccc(C(=O)O)cc2)NC(=O)[C@H](Cc2cccc(C)c2)NC(=O)[C@H](CC(=O)O)NC(=O)[C@H](Cc2ccc(OCC(=O)O)cc2)NC1=O` [Compound 2893] ({CH2CO}-[Nle]Y(Carboxymethyl)D[Phe(3-Me)][Phe(4-COOH)][Bip][Phe(4-COOH)][Orn][dL][Dab][Cha][Val(3-OH)]DC[Dab][AEEA][AEEA]-{NH(CH2)12COOH}; thioether N-14), the IC50 came out at 19.5 nM.
